The values below come from ChEMBL document CHEMBL1201862, “PubChem BioAssay data set” (2004).

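Growth conditions: 96-well plates. Treatment: test compound, 48 hours, 5 concentrations. Analysis: linear interpolation between bracketing concentrations; unreached endpoints set to highest concentration. GI50 = concentration required for 50% inhibition of growth.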 Calls of active or inactive are those of the source. Rule as the data show it: active = GI50 up to about 1.1 µM and inactive = higher.

Some test systems named below: DMS-114; XF498; KM-20L2; RXF 631; M19-MEL; DMS-273; HOP-18; LXFL 529; DLD-1.
Holding throughout (experiment): NCI-60 cell line screen, 48 h

Regarding `CC(=O)c1c(O)c2c([nH]c1=O)CCCC2`, the GI50 in the assay with DMS-114 was 25.4 µM (inactive); with XF498 it was 64.6 µM (inactive); with KM-20L2 it was 43.1 µM (inactive); in the assay with RXF 631, 21.8 µM (inactive); in the assay with M19-MEL, 21 µM (inactive); with DMS-273, 25.6 µM (inactive). In addition, the figures for the GI50 in the assay with HOP-18, with LXFL 529 and with DLD-1 were > 100 µM (inactive), > 100 µM (inactive) and 21.6 µM (inactive), respectively.
With `CN(C)CCC(/C=C/c1ccccc1)=N\Nc1ccc(Cl)c(Cl)c1`, the GI50 in the assay with XF498 was 2.3 µM (inactive); in the assay on KM-20L2, 2.02 µM (inactive); with RXF 631 it was 2.37 µM (inactive); in the assay on M19-MEL, 4.31 µM (inactive); with DMS-273, 2.36 µM (inactive); in the assay with HOP-18, 2.67 µM (inactive). Further, the GI50 in the assay on LXFL 529 was 2 µM (inactive); with DLD-1, 3.49 µM (inactive).
`O=C(/C=C/c1ccc(Cl)cc1)c1ccncc1`: the GI50 with DMS-114 is 48.1 µM (inactive); in the assay with KM-20L2, 35.9 µM (inactive); in the assay on RXF 631, 31.8 µM (inactive); in the assay on M19-MEL, 26.9 µM (inactive); in the assay with DMS-273 it was 69.3 µM (inactive); in the assay with HOP-18, > 100 µM (inactive). Besides, the GI50 in the assay with LXFL 529 is 60.5 µM (inactive); in the assay on DLD-1, 41 µM (inactive).
For the compound `Brc1ccccc1/C=N\C12CC3CC(CC(C3)C1)C2`, the GI50 was 5.77 µM (inactive) in the assay with DMS-114; > 100 µM (inactive) in the assay on XF498; > 100 µM (inactive) in the assay on KM-20L2; > 79.4 µM (inactive) in the assay on RXF 631; > 76.6 µM (inactive) in the assay with M19-MEL; 11.3 µM (inactive) in the assay with DMS-273. In addition, the GI50 is > 100 µM (inactive) with HOP-18, 10.3 µM (inactive) with LXFL 529 and 1.41 µM (inactive) in the assay with DLD-1.
With `NC(=O)c1csc(C2C=CC(CO)O2)n1` (stereo not drawn), the GI50 in the assay on DMS-114, with XF498, in the assay on KM-20L2, with RXF 631, in the assay with DMS-273 and in the assay on HOP-18 was > 100 µM (inactive) in each case. Further, the GI50 with LXFL 529 was > 100 µM (inactive).
On to `Nc1nc2c(c(=O)[n-]1)[n+](CCO)cn2C1OC(CO)C(O)C1O` (stereo not drawn), for which the GI50 with DMS-114, with XF498, in the assay on KM-20L2, in the assay with RXF 631, in the assay on M19-MEL and in the assay on DMS-273 was > 100 µM (inactive) throughout. The GI50 in the assay on HOP-18, in the assay on LXFL 529 and in the assay on DLD-1 was > 100 µM (inactive) in each case.
On to `C=C(C(=C)P(=S)(C(C)C)C(C)C)P(=S)(C(C)C)C(C)C`, for which the GI50 with DMS-114, in the assay with XF498, in the assay on KM-20L2, with RXF 631, with M19-MEL and in the assay with DMS-273 was > 100 µM (inactive) in each case. Further, the GI50 with LXFL 529 and with DLD-1 was > 100 µM (inactive) each time.
Turning to `COc1cc2c(cc1OC)C1Cc3cc(OC)c(OC)cc3N1CC2` (stereo not drawn), the GI50 in the assay on DMS-114 is 15.1 µM (inactive); with XF498 it was 18.5 µM (inactive); in the assay with KM-20L2, 38.6 µM (inactive); with M19-MEL it was 13.3 µM (inactive); with LXFL 529, 19.3 µM (inactive); with DLD-1, 39.8 µM (inactive).
Regarding `O=C(CC1(O)C(=O)Nc2c(Cl)ccc(Cl)c21)c1ccc(Cl)cc1` (stereo not drawn), the GI50 is 24.1 µM (inactive) in the assay with DMS-114; 19.1 µM (inactive) with XF498; 38.1 µM (inactive) in the assay with KM-20L2; 23.8 µM (inactive) with RXF 631; 18.4 µM (inactive) in the assay with M19-MEL; 27 µM (inactive) in the assay on DMS-273. Moreover, the GI50 was 44.2 µM (inactive) in the assay with HOP-18, 25.2 µM (inactive) in the assay with LXFL 529 and 38 µM (inactive) with DLD-1.
`N/N=C(\CCN1CCCC1)CC(c1ccccc1)c1c(O)c2ccccc2oc1=O` (stereo not drawn): the GI50 in the assay with DMS-114, with KM-20L2, in the assay on M19-MEL, in the assay with DMS-273, with HOP-18 and with LXFL 529 was > 100 µM (inactive) throughout. Besides, the GI50 with DLD-1 was > 100 µM (inactive).
With `O=C(O)c1c2c(cc3c(=O)c4ccccc4[nH]c13)CCCC2`, the GI50 was > 100 µM (inactive) in the assay on XF498; > 100 µM (inactive) in the assay with KM-20L2; > 100 µM (inactive) in the assay with RXF 631; > 100 µM (inactive) with M19-MEL; 83 µM (inactive) with DMS-273; > 100 µM (inactive) with HOP-18. In the assay on LXFL 529, the GI50 was > 100 µM (inactive).
With `CC(C)c1ccccc1NC(=O)CCc1n[nH]c(=S)o1`, the GI50 is > 67 µM (inactive) with DMS-114; > 100 µM (inactive) with XF498; > 100 µM (inactive) in the assay with KM-20L2; > 100 µM (inactive) in the assay with RXF 631; > 100 µM (inactive) with M19-MEL; > 54.3 µM (inactive) in the assay on DMS-273. Moreover, the GI50 in the assay on HOP-18 is > 100 µM (inactive); in the assay on LXFL 529 it was > 79.8 µM (inactive); in the assay on DLD-1, > 54.5 µM (inactive).
For `Cc1nc2ccccc2[s+]c1-c1cnc(NC#N)nc1C(=O)Nc1cccc(Cl)c1`, the GI50 in the assay with DMS-114, in the assay with KM-20L2, with M19-MEL, in the assay on DMS-273, with HOP-18 and in the assay on LXFL 529 was > 100 µM (inactive) in each case. Moreover, the GI50 in the assay on DLD-1 is > 100 µM (inactive).
For `Cc1ccc(S(=O)(=O)OC2CS[S+]([O-])CC2OS(=O)(=O)c2ccc(C)cc2)cc1` (stereo not drawn), the GI50 in the assay with DMS-114 is 17.9 µM (inactive); in the assay with XF498, 13.6 µM (inactive); in the assay on KM-20L2, 17.7 µM (inactive); with RXF 631, 16.6 µM (inactive); with M19-MEL it was 16.6 µM (inactive); with DMS-273, 18.9 µM (inactive). Further, the GI50 is 22.6 µM (inactive) in the assay on HOP-18, 14.5 µM (inactive) with LXFL 529 and 9.27 µM (inactive) in the assay on DLD-1.
Regarding `Cc1cc(C)nc(NS(=O)(=O)c2ccc(Nc3c4ccccc4nc4c(C(=O)NCCN(C)C)cccc34)cc2)n1`, the GI50 is 1.04 µM (active) in the assay with DMS-114; 13.7 µM (inactive) with XF498; 6.61 µM (inactive) with KM-20L2; 0.986 µM (active) in the assay with RXF 631; 3.44 µM (inactive) in the assay on M19-MEL; 0.813 µM (active) in the assay with DMS-273. Also, the GI50 in the assay on LXFL 529 was 4.25 µM (inactive); in the assay with DLD-1, 5.15 µM (inactive).
On to `Cc1cc2c(C)n[nH]c2c(C(=O)O)c1C`, for which the GI50 in the assay on DMS-114, in the assay with XF498, in the assay on KM-20L2, with M19-MEL, in the assay with DMS-273 and in the assay with LXFL 529 was > 100 µM (inactive) throughout. For the same compound, the GI50 with DLD-1 was > 100 µM (inactive).
For the compound `N#CC(C(=O)C(=O)C(C#N)c1ccc(Br)cc1)c1ccc(Br)cc1` (stereo not drawn), the GI50 is 12.1 µM (inactive) in the assay with DMS-114; 12.2 µM (inactive) in the assay on KM-20L2; 12.1 µM (inactive) with M19-MEL; 12.1 µM (inactive) in the assay on DMS-273; 11.4 µM (inactive) with HOP-18; 14.3 µM (inactive) with DLD-1.
In the case of `Fc1ccc(C2SCc3nc4ccccc4n32)cc1Cl` (stereo not drawn), the GI50 in the assay on DMS-114 is 19.9 µM (inactive); in the assay with XF498, 14 µM (inactive); with KM-20L2, 29.9 µM (inactive); in the assay on RXF 631, 32.9 µM (inactive); in the assay on M19-MEL it was 19.8 µM (inactive); in the assay on DMS-273, > 10 µM (inactive). Also, the GI50 was 18.6 µM (inactive) with LXFL 529 and 23 µM (inactive) in the assay on DLD-1.
For the compound `CCCNCCCCC(NC(C)=O)C(=O)NCc1ccccc1` (stereo not drawn), the GI50 in the assay with DMS-114, in the assay with XF498, with KM-20L2, in the assay on RXF 631, with M19-MEL and with DMS-273 was > 100 µM (inactive) each time. The GI50 in the assay with LXFL 529 and in the assay on DLD-1 was > 100 µM (inactive) throughout.
Regarding `O=C(N/C(=C\c1ccc(/C=C(\NC(=O)c2ccccc2)c2nc3ccccc3[nH]2)cc1)c1nc2ccccc2[nH]1)c1ccccc1`, the GI50 was > 100 µM (inactive) in the assay with DMS-114; > 100 µM (inactive) in the assay with XF498; > 100 µM (inactive) in the assay on KM-20L2; > 100 µM (inactive) in the assay on M19-MEL; 52.8 µM (inactive) in the assay with DMS-273; > 100 µM (inactive) in the assay on HOP-18. Moreover, the GI50 in the assay on LXFL 529 and in the assay on DLD-1 was > 100 µM (inactive) in each case.
With `CSC(C1c2ccccc2N(c2ccc(C)cc2)C2=NC(=O)N(C)C(=O)C21Cl)S(=O)(=O)c1ccc(C)cc1` (stereo not drawn), the GI50 in the assay with DMS-114 is 19 µM (inactive); in the assay on XF498, 30.8 µM (inactive); in the assay on KM-20L2, 21.7 µM (inactive); in the assay on M19-MEL it was 23.7 µM (inactive); in the assay with DMS-273, 20 µM (inactive); in the assay with LXFL 529, 17.5 µM (inactive). The GI50 in the assay on DLD-1 is 16.3 µM (inactive).
Regarding `COC1CC(n2cc(F)c(N)nc2=O)OC1CO` (stereo not drawn), the GI50 is > 100 µM (inactive) in the assay on DMS-114; > 100 µM (inactive) in the assay with XF498; > 100 µM (inactive) in the assay with KM-20L2; > 100 µM (inactive) in the assay with RXF 631; > 100 µM (inactive) with DMS-273; 49.4 µM (inactive) in the assay on HOP-18. Moreover, the GI50 with LXFL 529 and with DLD-1 was > 100 µM (inactive) in each case.
On to `CS(=O)(=O)CS(=O)(=O)OCCCl`, for which the GI50 in the assay on DMS-114 is 86.7 µM (inactive); in the assay on KM-20L2, 565 µM (inactive); in the assay with M19-MEL it was 286 µM (inactive); in the assay with DMS-273, 236 µM (inactive); in the assay with HOP-18, 438 µM (inactive); in the assay with DLD-1 it was 333 µM (inactive).
